Experimental data reported in paper PMC9817970 (Cancers, 2022).

Assays:
c-KIT D816V Ba/F3 cells [1] = assay: Anti-proliferative activity on Ba/F3 cells; assay type: cell-based; details: Mus musculus, BaF3
HMC1.2 cells = assay: Apoptosis analysis (annexinV/PI flow cytometry); assay type: cell-based, human; details: HMC1.2, 1 μM, 48 h
Method: (§1) After compound treatment in GIST-T1 and HMC1.2 cells for 24 h, cells were fixed with 70% cold ethanol. Then, cells were incubated with 50 μg propidium iodide/mL solution (PI, Sigma) containing 1 mg RNase A/mL for 30 min in the dark. Cell cycle arrest was analyzed (BD Accuri), and data were processed using BD Accuri^TM C6 software. For apoptosis analysis, compound treatment for 24–48 h, cells were harvested and stained with annexinV and PI solution. 1 × 10^5 cells were analyzed using flow cytometric analysis.

GIST-T1 cells [2] = assay: Apoptosis analysis (annexinV/PI flow cytometry); assay type: cell-based, human; details: GIST-T1, 0.05 μM
Method: as §1

GIST-T1 cells [3] = assay: Soft agar assay (anchorage-independent growth); assay type: cell-based, human; details: 3 weeks
Method: Anchorage-independent growth was assessed by determining colony formation on soft agar. GIST-T1 cells in DMEM media containing 0.7% agar were plated at 5,000 cells per well. Cells were treated with each compound for 3 weeks, and the media were changed every 3 days. Colonies were stained using iodonitrotetrazolium chloride (Sigma Aldrich). The average number colonies were counted using ImageJ software (version 1.53e, National Institutes of Health, Bethesda, MD, USA)

c-KIT D816V Ba/F3 cells [4] = assay: Cell cycle arrest analysis (PI flow cytometry); assay type: cell-based; details: c-KIT D816V Ba/F3, 0.5 μM, 24 h
MNK1 = biological target: T1, MNK1 (Homo sapiens, UniProt Q9BUB5); assay: Kinase panel profiling; assay type: biochemical; details: 10 μM ATP
T1 construct: purchased Reaction Biology Corp
Method: (§2) Kinase panel profiling was conducted by Reaction Biology Corp. (San Diego, CA, USA). A single dose (1.0 μM) of 6r was tested against 371 recombinant human kinases in the presence of 10 μM ATP.

TLK2 = biological target: T2, TLK2 (Homo sapiens, UniProt Q86UE8); assay: Kinase panel profiling; assay type: biochemical; details: 10 μM ATP
T2 construct: purchased Reaction Biology Corp
Method: as §2

WEE1 = biological target: T3, WEE1 (Homo sapiens, UniProt P30291); assay: Kinase panel profiling; assay type: biochemical; details: 10 μM ATP
T3 construct: purchased Reaction Biology Corp
Method: as §2

HIPK2 = biological target: T4, HIPK2 (Homo sapiens, UniProt Q9H2X6); assay: Kinase panel profiling; assay type: biochemical; details: 10 μM ATP
T4 construct: purchased Reaction Biology Corp
Method: as §2

PKCg = biological target: T5, PKCg (Homo sapiens, UniProt P05129); assay: Kinase panel profiling; assay type: biochemical; details: 10 μM ATP
T5 construct: purchased Reaction Biology Corp
Method: as §2

CDK5/P25 = biological target: T6, CDK5/P25 (Homo sapiens, UniProt Q00535); assay: Kinase panel profiling; assay type: biochemical; details: 10 μM ATP
T6 construct: purchased Reaction Biology Corp
Method: as §2

TBK1 = biological target: T7, TBK1 (Homo sapiens, UniProt Q9UHD2); assay: Kinase panel profiling; assay type: biochemical; details: 10 μM ATP
T7 construct: purchased Reaction Biology Corp
Method: as §2

PKN1/PRK1 = biological target: T8, PKN1/PRK1 (Homo sapiens, UniProt Q16512); assay: Kinase panel profiling; assay type: biochemical; details: 10 μM ATP
T8 construct: purchased Reaction Biology Corp
Method: as §2

CDK2/cyclin E2 = biological target: T9, CDK2/cyclin E2 (Homo sapiens, UniProt P24941); assay: Kinase panel profiling; assay type: biochemical; details: 10 μM ATP
T9 construct: purchased Reaction Biology Corp
Method: as §2

MARK2/PAR-1Ba = biological target: T10, MARK2/PAR-1Ba (Homo sapiens, UniProt Q7KZI7); assay: Kinase panel profiling; assay type: biochemical; details: 10 μM ATP
T10 construct: purchased Reaction Biology Corp
Method: as §2

ERN2/IRE2 = biological target: T11, ERN2/IRE2 (Homo sapiens, UniProt Q76MJ5); assay: Kinase panel profiling; assay type: biochemical; details: 10 μM ATP
T11 construct: purchased Reaction Biology Corp
Method: as §2

VRK2 = biological target: T12, VRK2 (Homo sapiens, UniProt Q86Y07); assay: Kinase panel profiling; assay type: biochemical; details: 10 μM ATP
T12 construct: purchased Reaction Biology Corp
Method: as §2

TRKB = biological target: T13, TRKB (Homo sapiens, UniProt Q16620); assay: Kinase panel profiling; assay type: biochemical; details: 10 μM ATP
T13 construct: purchased Reaction Biology Corp
Method: as §2

EPHB4 = biological target: T14, EPHB4 (Homo sapiens, UniProt P54760); assay: Kinase panel profiling; assay type: biochemical; details: 10 μM ATP
T14 construct: purchased Reaction Biology Corp
Method: as §2

ULK1 = biological target: T15, ULK1 (Homo sapiens, UniProt O75385); assay: Kinase panel profiling; assay type: biochemical; details: 10 μM ATP
T15 construct: purchased Reaction Biology Corp
Method: as §2

PIM2 = biological target: T16, PIM2 (Homo sapiens, UniProt Q9P1W9); assay: Kinase panel profiling; assay type: biochemical; details: 10 μM ATP
T16 construct: purchased Reaction Biology Corp
Method: as §2

PKG2/PRKG2 = biological target: T17, PKG2/PRKG2 (Homo sapiens, UniProt Q13237); assay: Kinase panel profiling; assay type: biochemical; details: 10 μM ATP
T17 construct: purchased Reaction Biology Corp
Method: as §2

MKK7 = biological target: T18, MKK7 (Homo sapiens, UniProt O14733); assay: Kinase panel profiling; assay type: biochemical; details: 10 μM ATP
T18 construct: purchased Reaction Biology Corp
Method: as §2

MEKK1 = biological target: T19, MEKK1 (Homo sapiens, UniProt Q13233); assay: Kinase panel profiling; assay type: biochemical; details: 10 μM ATP
T19 construct: purchased Reaction Biology Corp
Method: as §2

ZAP70 = biological target: T20, ZAP70 (Homo sapiens, UniProt P43403); assay: Kinase panel profiling; assay type: biochemical; details: 10 μM ATP
T20 construct: purchased Reaction Biology Corp
Method: as §2

SRPK1 = biological target: T21, SRPK1 (Homo sapiens, UniProt Q96SB4); assay: Kinase panel profiling; assay type: biochemical; details: 10 μM ATP
T21 construct: purchased Reaction Biology Corp
Method: as §2

MYO3A = biological target: T22, MYO3A (Homo sapiens, UniProt Q8NEV4); assay: Kinase panel profiling; assay type: biochemical; details: 10 μM ATP
T22 construct: purchased Reaction Biology Corp
Method: as §2

CAMKK1 = biological target: T23, CAMKK1 (Homo sapiens, UniProt Q8N5S9); assay: Kinase panel profiling; assay type: biochemical; details: 10 μM ATP
T23 construct: purchased Reaction Biology Corp
Method: as §2

SNRK = biological target: T24, SNRK (Homo sapiens, UniProt Q9NRH2); assay: Kinase panel profiling; assay type: biochemical; details: 10 μM ATP
T24 construct: purchased Reaction Biology Corp
Method: as §2

c-Src = biological target: T25, c-Src (Homo sapiens, UniProt P12931); assay: Kinase panel profiling; assay type: biochemical; details: 10 μM ATP
T25 construct: purchased Reaction Biology Corp
Method: as §2

NEK5 = biological target: T26, NEK5 (Homo sapiens, UniProt Q6P3R8); assay: Kinase panel profiling; assay type: biochemical; details: 10 μM ATP
T26 construct: purchased Reaction Biology Corp
Method: as §2

KDR/VEGFR2 = biological target: T27, KDR/VEGFR2 (Homo sapiens, UniProt P35968); assay: Kinase panel profiling; assay type: biochemical; details: 10 μM ATP
T27 construct: purchased Reaction Biology Corp
Method: as §2

MEK1 = biological target: T28, MEK1 (Homo sapiens, UniProt Q02750); assay: Kinase panel profiling; assay type: biochemical; details: 10 μM ATP
T28 construct: purchased Reaction Biology Corp
Method: as §2

TRKA = biological target: T29, TRKA (Homo sapiens, UniProt P04629); assay: Kinase panel profiling; assay type: biochemical; details: 10 μM ATP
T29 construct: purchased Reaction Biology Corp
Method: as §2

TTBK1 = biological target: T30, TTBK1 (Homo sapiens, UniProt Q5TCY1); assay: Kinase panel profiling; assay type: biochemical; details: 10 μM ATP
T30 construct: purchased Reaction Biology Corp
Method: as §2

SRPK2 = biological target: T31, SRPK2 (Homo sapiens, UniProt P78362); assay: Kinase panel profiling; assay type: biochemical; details: 10 μM ATP
T31 construct: purchased Reaction Biology Corp
Method: as §2

LKB1 = biological target: T32, LKB1 (Homo sapiens, UniProt Q15831); assay: Kinase panel profiling; assay type: biochemical; details: 10 μM ATP
T32 construct: purchased Reaction Biology Corp
Method: as §2

T32 sequence (Q15831 whole entry): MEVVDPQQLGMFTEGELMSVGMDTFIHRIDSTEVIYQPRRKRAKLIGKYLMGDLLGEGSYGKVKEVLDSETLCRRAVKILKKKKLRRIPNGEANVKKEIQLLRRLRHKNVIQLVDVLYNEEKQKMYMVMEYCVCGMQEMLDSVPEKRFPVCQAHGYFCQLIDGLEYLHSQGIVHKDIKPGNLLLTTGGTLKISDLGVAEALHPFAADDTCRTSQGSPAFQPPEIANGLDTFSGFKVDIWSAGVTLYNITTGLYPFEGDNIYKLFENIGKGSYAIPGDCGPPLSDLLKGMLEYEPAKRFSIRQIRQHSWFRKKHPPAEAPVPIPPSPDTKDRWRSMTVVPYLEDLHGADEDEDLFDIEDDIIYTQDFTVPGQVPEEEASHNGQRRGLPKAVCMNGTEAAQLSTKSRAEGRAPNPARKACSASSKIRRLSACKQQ
T32 sequence (Q7RTN6 whole entry partner): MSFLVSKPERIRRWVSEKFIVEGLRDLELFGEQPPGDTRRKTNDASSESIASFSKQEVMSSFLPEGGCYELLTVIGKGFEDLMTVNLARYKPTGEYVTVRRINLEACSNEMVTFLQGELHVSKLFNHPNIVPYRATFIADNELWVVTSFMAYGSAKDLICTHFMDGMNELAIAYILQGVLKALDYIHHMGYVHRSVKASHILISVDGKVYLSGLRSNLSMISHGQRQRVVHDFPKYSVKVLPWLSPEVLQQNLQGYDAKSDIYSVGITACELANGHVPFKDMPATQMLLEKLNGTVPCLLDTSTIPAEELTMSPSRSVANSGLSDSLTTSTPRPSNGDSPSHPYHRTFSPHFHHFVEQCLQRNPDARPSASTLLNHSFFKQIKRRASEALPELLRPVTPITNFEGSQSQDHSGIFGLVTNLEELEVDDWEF
T32 sequence (Q9Y376 whole entry partner): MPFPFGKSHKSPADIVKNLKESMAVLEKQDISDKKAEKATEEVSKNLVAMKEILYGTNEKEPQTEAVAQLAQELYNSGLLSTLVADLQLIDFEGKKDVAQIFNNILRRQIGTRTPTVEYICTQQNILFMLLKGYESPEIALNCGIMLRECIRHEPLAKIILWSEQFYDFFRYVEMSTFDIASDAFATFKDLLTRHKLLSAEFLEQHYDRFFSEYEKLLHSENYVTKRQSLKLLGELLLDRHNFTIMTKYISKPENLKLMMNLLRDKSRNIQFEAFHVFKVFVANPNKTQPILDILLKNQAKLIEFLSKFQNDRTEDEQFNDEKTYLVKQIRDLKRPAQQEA
T2 sequence (Q86UE8 whole entry): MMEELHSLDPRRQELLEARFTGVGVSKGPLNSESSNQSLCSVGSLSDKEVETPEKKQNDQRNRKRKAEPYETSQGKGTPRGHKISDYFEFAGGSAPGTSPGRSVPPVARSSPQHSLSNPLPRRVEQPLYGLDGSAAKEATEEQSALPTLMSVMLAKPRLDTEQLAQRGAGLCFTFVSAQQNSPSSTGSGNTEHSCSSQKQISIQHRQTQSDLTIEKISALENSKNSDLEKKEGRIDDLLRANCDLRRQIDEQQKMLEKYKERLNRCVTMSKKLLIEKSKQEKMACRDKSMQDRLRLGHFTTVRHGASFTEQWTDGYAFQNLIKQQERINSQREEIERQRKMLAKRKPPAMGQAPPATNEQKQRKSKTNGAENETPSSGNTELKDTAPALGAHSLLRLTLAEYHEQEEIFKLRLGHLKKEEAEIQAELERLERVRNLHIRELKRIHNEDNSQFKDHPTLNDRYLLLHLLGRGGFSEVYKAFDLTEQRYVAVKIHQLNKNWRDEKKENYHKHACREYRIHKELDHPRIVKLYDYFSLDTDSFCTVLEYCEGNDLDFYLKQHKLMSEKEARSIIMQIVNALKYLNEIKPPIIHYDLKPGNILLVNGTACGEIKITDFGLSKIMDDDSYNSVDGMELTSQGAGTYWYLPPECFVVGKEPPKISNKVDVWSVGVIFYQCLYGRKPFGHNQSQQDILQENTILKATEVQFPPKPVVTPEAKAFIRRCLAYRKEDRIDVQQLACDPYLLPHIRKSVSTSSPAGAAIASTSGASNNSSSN
T13 sequence (Q16620 32-822): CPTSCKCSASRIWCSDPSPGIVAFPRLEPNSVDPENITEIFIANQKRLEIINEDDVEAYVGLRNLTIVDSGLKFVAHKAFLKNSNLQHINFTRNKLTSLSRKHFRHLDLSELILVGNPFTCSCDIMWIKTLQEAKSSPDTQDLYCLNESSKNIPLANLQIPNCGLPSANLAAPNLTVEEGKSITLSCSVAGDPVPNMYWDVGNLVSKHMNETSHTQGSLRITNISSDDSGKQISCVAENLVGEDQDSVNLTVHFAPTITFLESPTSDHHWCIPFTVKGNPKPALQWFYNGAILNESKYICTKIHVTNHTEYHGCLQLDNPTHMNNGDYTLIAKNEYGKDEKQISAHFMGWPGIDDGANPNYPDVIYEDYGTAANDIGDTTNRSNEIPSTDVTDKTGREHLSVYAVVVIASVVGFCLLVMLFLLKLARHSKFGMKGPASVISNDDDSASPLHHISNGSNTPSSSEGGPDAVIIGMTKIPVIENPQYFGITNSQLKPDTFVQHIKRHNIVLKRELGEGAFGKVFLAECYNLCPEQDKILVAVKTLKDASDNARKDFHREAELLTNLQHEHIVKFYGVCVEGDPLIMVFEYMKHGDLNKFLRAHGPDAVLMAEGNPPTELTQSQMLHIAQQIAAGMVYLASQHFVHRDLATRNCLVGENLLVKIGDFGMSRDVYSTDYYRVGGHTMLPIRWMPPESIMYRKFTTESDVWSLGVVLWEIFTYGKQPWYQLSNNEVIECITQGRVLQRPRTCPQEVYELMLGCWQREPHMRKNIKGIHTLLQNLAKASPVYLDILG
T19 sequence (Q13233 whole entry): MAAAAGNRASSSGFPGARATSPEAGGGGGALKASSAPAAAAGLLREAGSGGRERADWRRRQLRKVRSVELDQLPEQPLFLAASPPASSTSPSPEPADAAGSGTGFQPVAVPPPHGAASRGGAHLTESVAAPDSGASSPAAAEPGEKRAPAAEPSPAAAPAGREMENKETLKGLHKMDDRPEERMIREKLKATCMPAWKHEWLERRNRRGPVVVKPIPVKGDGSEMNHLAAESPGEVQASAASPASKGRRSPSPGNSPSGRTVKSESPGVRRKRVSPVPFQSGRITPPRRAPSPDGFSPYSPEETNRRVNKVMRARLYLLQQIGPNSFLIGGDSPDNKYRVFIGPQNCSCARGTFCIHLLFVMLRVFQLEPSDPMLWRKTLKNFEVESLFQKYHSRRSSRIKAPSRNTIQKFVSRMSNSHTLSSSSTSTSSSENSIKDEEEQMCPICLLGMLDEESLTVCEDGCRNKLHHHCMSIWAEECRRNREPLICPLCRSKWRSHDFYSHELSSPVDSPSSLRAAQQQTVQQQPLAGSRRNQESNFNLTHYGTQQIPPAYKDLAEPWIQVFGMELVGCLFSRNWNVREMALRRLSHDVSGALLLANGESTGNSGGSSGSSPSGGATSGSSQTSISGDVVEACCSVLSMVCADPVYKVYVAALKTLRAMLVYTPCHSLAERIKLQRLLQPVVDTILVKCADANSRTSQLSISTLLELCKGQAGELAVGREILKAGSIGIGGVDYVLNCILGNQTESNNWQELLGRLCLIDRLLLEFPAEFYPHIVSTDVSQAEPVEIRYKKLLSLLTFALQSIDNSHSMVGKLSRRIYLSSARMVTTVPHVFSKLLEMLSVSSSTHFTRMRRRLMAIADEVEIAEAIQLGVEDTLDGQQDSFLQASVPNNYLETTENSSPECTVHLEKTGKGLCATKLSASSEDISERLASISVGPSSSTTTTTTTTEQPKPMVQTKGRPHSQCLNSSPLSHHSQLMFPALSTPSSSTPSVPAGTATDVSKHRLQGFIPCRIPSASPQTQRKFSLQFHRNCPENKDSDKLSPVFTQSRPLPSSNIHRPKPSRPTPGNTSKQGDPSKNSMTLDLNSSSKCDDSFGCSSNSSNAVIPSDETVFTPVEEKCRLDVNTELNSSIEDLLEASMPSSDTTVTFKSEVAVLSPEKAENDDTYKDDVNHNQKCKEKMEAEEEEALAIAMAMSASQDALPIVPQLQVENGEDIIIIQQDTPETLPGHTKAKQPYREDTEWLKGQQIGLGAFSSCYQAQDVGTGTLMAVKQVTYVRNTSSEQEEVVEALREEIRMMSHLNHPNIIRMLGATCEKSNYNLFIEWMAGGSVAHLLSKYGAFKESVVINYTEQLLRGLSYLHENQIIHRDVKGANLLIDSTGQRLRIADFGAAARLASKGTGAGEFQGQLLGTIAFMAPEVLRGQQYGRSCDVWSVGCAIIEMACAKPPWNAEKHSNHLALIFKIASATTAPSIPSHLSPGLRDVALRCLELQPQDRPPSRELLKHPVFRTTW
T21 sequence (Q96SB4 whole entry): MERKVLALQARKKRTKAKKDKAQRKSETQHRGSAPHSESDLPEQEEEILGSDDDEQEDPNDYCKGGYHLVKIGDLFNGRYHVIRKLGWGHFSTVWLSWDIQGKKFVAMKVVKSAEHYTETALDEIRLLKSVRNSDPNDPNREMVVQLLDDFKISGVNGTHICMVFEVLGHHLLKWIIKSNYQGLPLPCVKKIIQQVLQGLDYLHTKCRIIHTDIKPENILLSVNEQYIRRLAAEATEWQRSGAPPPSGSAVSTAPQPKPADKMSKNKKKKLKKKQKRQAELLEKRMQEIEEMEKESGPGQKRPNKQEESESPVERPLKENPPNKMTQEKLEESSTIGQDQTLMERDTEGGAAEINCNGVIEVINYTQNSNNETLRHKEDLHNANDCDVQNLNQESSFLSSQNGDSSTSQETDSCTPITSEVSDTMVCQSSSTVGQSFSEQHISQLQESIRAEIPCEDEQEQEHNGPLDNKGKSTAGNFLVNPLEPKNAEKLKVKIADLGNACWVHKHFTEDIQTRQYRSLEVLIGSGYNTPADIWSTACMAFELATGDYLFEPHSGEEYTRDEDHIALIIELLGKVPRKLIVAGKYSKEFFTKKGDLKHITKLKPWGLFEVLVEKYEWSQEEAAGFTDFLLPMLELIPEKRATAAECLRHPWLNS

Cc1ccc(NC(=O)c2ccc(CN3CCN(C)CC3)c(C(F)(F)F)c2)cc1-c1cnc2sc(N)nc2c1 [6r]
GI50 (c-KIT D816V Ba/F3 cells [1]): 1110 ± 470 nM | production of apoptotic cells (HMC1.2 cells): remarkably induced | production of apoptotic cells (GIST-T1 cells [2]): remarkably induced | anchorage-independent growth (GIST-T1 cells [3]; GIST-T1, 0.05 μM, compared to control): completely suppressed | anchorage-independent growth (GIST-T1 cells [3]; GIST-T1, two different concentrations): dramatic inhibition | G0/G1 arrest compared with imatinib (c-KIT D816V Ba/F3 cells [4]): more strongly | inhibition at 1 µM (MNK1): 0% | inhibition at 1 µM (TLK2): 0% | inhibition at 1 µM (WEE1): 0% | inhibition at 1 µM (HIPK2): 0.5% | inhibition at 1 µM (PKCg): 0.7% | inhibition at 1 µM (CDK5/P25): 8.7% | inhibition at 1 µM (TBK1): 5% | inhibition at 1 µM (PKN1/PRK1): 15.1% | inhibition at 1 µM (CDK2/cyclin E2): 8.3% | inhibition at 1 µM (MARK2/PAR-1Ba): 0% | inhibition at 1 µM (ERN2/IRE2): 12.9% | inhibition at 1 µM (VRK2): 20.1% | inhibition at 1 µM (TRKB): 10.6% | inhibition at 1 µM (EPHB4): 27.3% | inhibition at 1 µM (ULK1): 3.7% | inhibition at 1 µM (PIM2): 0.8% | inhibition at 1 µM (PKG2/PRKG2): 9.1% | inhibition at 1 µM (MKK7): 7.3% | inhibition at 1 µM (MEKK1): 0% | inhibition at 1 µM (ZAP70): 8.7% | inhibition at 1 µM (SRPK1): 46.3% | inhibition at 1 µM (MYO3A): 15% | inhibition at 1 µM (CAMKK1): 7.2% | inhibition at 1 µM (SNRK): 0% | inhibition at 1 µM (c-Src): 68.7% | inhibition at 1 µM (NEK5): 0% | inhibition at 1 µM (KDR/VEGFR2): 77.8% | inhibition at 1 µM (MEK1): 14.4% | inhibition at 1 µM (TRKA): 9.7% | inhibition at 1 µM (TTBK1): 9.9% | inhibition at 1 µM (SRPK2): 9% | inhibition at 1 µM (LKB1): 0%
